In the supplement of paper PMC10307832:

Legend:
Assay in all cases: relative viability (nuclei count vs DMSO), 5 days (fraction); higher = more cells survive
[1] = compound: C1CC(C1)(C(=O)O)C(=O)O.[NH2-].[NH2-].[Pt+2] [Carboplatin] + CC1(C)CCC(c2ccc(Cl)cc2)=C(CN2CCN(c3ccc(C(=O)NS(=O)(=O)c4ccc(N[C@H](CCN5CCOCC5)CSc5ccccc5)c(S(=O)(=O)C(F)(F)F)c4)cc3)CC2)C1 [Navitoclax] (partner 0.5 µM)
In short: (§1)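 Relative viability equals treated-well nuclei counts divided by vehicle-well nuclei counts. Counts came from 4× images of lung cancer cell lines grown in 1536-well plates for 5 days after pin-tool dosing on the day after seeding. Dosing used one drug alone or a fixed anchor-drug dose plus five library-drug doses (not always all listed) in √10 steps, and values are medians of duplicate plates.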

[2] = compound: C1CC(C1)(C(=O)O)C(=O)O.[NH2-].[NH2-].[Pt+2] [Carboplatin] + Cc1nc(NC(=O)N2CCC[C@H]2C(N)=O)sc1-c1ccnc(C(C)(C)C(F)(F)F)c1 [Alpelisib] (partner 2 µM)
In short: as §1

[3] = compound: CC[C@H](C)N1C=C(C2=C(C=C(C=C21)C3=CN=C(C=C3)N4CCNCC4)C(=O)NCC5=C(C=C(NC5=O)C)C)C [GSK126] + O=C(c1cc(Cc2n[nH]c(=O)c3ccccc23)ccc1F)N1CCN(C(=O)C2CC2)CC1 [Olaparib] (partner 8 µM)
In short: as §1

[4] = compound: NS(=O)(=O)OC[C@@H]1C[C@@H](n2ccc3c(N[C@H]4CCc5ccccc54)ncnc32)C[C@@H]1O [MLN4924] + COc1cccc2cc(-c3nc([C@H]4CC[C@H](C(=O)O)CC4)n4ncnc(N)c34)[nH]c12 [OSI-027] (partner 0.5 µM)
In short: as §1

## UMC-11
[1]; first compound 0.08 µM
  relative viability: 0.325
[1]; first compound 0.253 µM
  relative viability: 0.355
[1]; first compound 0.8 µM
  relative viability: 0.342
[1]; first compound 2.53 µM
  relative viability: 0.313
[1]; first compound 8 µM
  relative viability: 0.256
[2]; first compound 0.08 µM
  relative viability: 1
[2]; first compound 0.253 µM
  relative viability: 0.96
[2]; first compound 0.8 µM
  relative viability: 0.827
[2]; first compound 2.53 µM
  relative viability: 0.955
[2]; first compound 8 µM
  relative viability: 0.588
[3]; first compound 0.08 µM
  relative viability: 0.345
[3]; first compound 0.253 µM
  relative viability: 0.364
[3]; first compound 0.8 µM
  relative viability: 0.394
[3]; first compound 2.53 µM
  relative viability: 0.376
[3]; first compound 8 µM
  relative viability: 0.361
[4]; first compound 0.04 µM
  relative viability: 0.429
[4]; first compound 0.1265 µM
  relative viability: 0.315
[4]; first compound 0.4 µM
  relative viability: 0.271
[4]; first compound 1.265 µM
  relative viability: 0.168
[4]; first compound 4 µM
  relative viability: 0.179
